Data: patent US20230272077A1, “PD-1 SIGNAL INHIBITOR COMBINATION THERAPY” (KYOTO UNIVERSITY, priority 2015, published 2023)
Entries after “also recorded” stand apart in the source; their conditions may differ.

Experiments:
[1] = tested on: mTOR and its associated proteins S6K and 4EBP1; experiment: Western blotting of DLN CD8+ T cells, mTOR pathway; format: in vivo, mouse; settings: CD8+ T cells from mice treated with PD-L1 antibody and reagent
Procedure: FIG. 7. […] Phosphorylation of AMPK, ACC, mTOR and S6K and the expression of SIRT1 and 4EBP1 were analyzed by Western blotting. b) MC38-bearing mice were treated with PD-L1 antibody in combination with AMPK activator (A769662) and/or mTOR activator (MHY1485) according to the same schedule as shown in FIG. 3b.
CD8^+ T cells were isolated using mouse CD8 Microbeads (Miltenyi Biotec). After washing with PBS twice, 2×10^6 cells were solubilized in a lysis buffer containing 30 mM Tris-HCl (pH.7.4), 150 mM NaCl, 10% glycerol, 0.1% SDS, 1% Triton-X-100, 0.05% Na-Doc, 5 mM EDTA (pH.8.0), protease inhibitor mixture (Roche Molecular Biochemicals) and phosphatase inhibitors (Nacalai Tesque). After measurement of protein concentrations by DC protein assay (Bio-Rad), 4 μg of proteins was mounted on 4 to 20% gradient Mini-PROTEAN TGX Gels (Bio-Rad) and electroblotted onto nitrocellulose membranes, which were then incubated in a blocking buffer of TBS containing 1% BSA. Primary antibody incubations were carried out overnight at 4° C. in blocking buffer. After washing, secondary antibody incubations were carried out at room temperature for 40 min in blocking buffer. Blots were developed with enhanced chemiluminescence (Amersham Pharmacia). […]

PGC-1α = PGC-1α expression (Western blotting, real-time RT-PCR); format: in vivo, mouse; settings: combination therapy together with PD-L1 antibody
Procedure: RNA was isolated from CD8^+ T cells or tumor cells with the RNeasy Mini Kit (Qiagen), followed by cDNA synthesis by reverse transcription. Real-time PCR for PGC-1α was performed using the following primers: Forward […] (SEQ ID NO: 1) and Reverse […] (SEQ ID NO: 2). To analyze the expression levels of genes associated with apoptosis and mitochondrial energy metabolism, RT2 Profiler PCR Array Gene Expression Kit PAMM-012Z or PAMM-008Z (Qiagen) was used. The list of genes included in this assay can be found in www.sabiosciences.com/Apoptosis.php.
CD8^+ T cells were isolated using mouse CD8 Microbeads (Miltenyi Biotec). After washing with PBS twice, 2×10^6 cells were solubilized in a lysis buffer containing 30 mM Tris-HCl (pH.7.4), 150 mM NaCl, 10% glycerol, 0.1% SDS, 1% Triton-X-100, 0.05% Na-Doc, 5 mM EDTA (pH.8.0), protease inhibitor mixture (Roche Molecular Biochemicals) and phosphatase inhibitors (Nacalai Tesque). After measurement of protein concentrations by DC protein assay (Bio-Rad), 4 μg of proteins was mounted on 4 to 20% gradient Mini-PROTEAN TGX Gels (Bio-Rad) and electroblotted onto nitrocellulose membranes, which were then incubated in a blocking buffer of TBS containing 1% BSA. Primary antibody incubations were carried out overnight at 4° C. in blocking buffer. After washing, secondary antibody incubations were carried out at room temperature for 40 min in blocking buffer. Blots were developed with enhanced chemiluminescence (Amersham Pharmacia). Primary antibodies recognizing the following proteins were used: Phospho-mTOR (P-mTOR) (Cat #5536), Phospho-AMPKa (P-AMPK) (#2535), Phospho-p70 S6 Kinase (P-S6K) (#9205), 4E-BP1 (#9644), Phospho-Acetyl-CoA Carboxylase (P-ACC) (#3661) and SIRT1 (#9475). All the primary antibodies were obtained from Cell Signaling Technology. An antibody recognizing PGC-1α (SC-13067) was obtained from Santa Cruz.

IFN-γ = experiment: Intracellular IFN-γ staining of CD8+ T cells from digested tumor tissues; format: in vivo, mouse; settings: CD8+ T cells in tumors; combined with PD-L1 antibody
Procedure: (§1) FIG. 15. […] Data represent the means±SEM of five mice. *p<0.05, **p<0.01, one-way ANOVA.
(§2) The following antibodies recognizing the indicated antigens were used: CD44 (1M7), CD45.2 (104), CD45.1 (A20), CD8 (53-6.7), CD62L (MEL-14), T-bet (4B/O) and IFN-7 (XMG1.2), MHC class I (AF6-88.5), CD155 (Tx56) and VISTA (MIH63) from BioLegend; p-AMPK (EPR5683) from Ancam; p-mTOR (MRRBY), Eomes (Danllmag) and PD-L1 (M1H5) from eBioscience. All flow cytometry experiments were performed on a FACS Canto II (BD Biosciences) and analyzed using FlowJo software (FLOWJO, LLC). For assessment of intracellular phosphoproteins, cells were permeabilized with 0.5% Triton-X and fixed with 1.5% PFA before staining. Determination of mitochondrial mass, membrane potential, mitochondrial superoxide and cellular ROS was performed using MitoTracker Green, Mito-Tracker Deep Red, MitoSOX Red, and CellROX Green reagents, respectively (all from Life Technologies). These dyes were added to cells to a final concentration of 0.125 μM, 0.125 μM, 5.0 μM and 0.625 μM, respectively, and incubated at 37° C. in a 5% CO2 humidified incubator for 30 min.

T-bet and Eomes = T-bet and Eomes expression by flow cytometry in DLN CD8+ T cells; format: in vivo, mouse; settings: combined with PD-L1 antibody
Procedure: as §1, §2

CD8+ T cells = tested on: CD8+ T cells
Procedure: FIG. 6. […] Draining lymph node (DLN) cells on day 14 were stained with anti-CD8, -CD62L, and -CD44 antibodies, and then CD8^+ T cells were gated. P1 to P3 populations were defined based on the intensities of CD62L and CD44 (Upper). The absolute cell numbers of P1 to P3 in each group were calculated. […] Representative FACS profiles of P1 to P3 (Upper). Representative FACS profiles of the P3 population stained with each mitochondrial dye in each group (Middle). MFI of P1 to P3 stained with each dye was compared between treated groups. Colors correspond to the P1 to P3 populations. […] CD45^+ CD8^+ T cells were gated, and their CD62L and CD44 phenotypes were analyzed (Left). The frequencies of CD8^+ T cells in CD45^+ T cells and the absolute numbers of CD45^+ CD8^+ T cells were compared between groups (Right). Data represent the means±SEM of five mice. *p<0.05, **p<0.01, one-way ANOVA analysis. FACS data are representative of five mice in each group.
For analyzing draining lymph nodes, cells from axillary, brachial, and inguinal lymph nodes on the right side of tumor-inoculated mice were harvested and mixed. Averaged cell numbers per one lymph node were used as absolute cell numbers. For tumor analysis, tumor tissues were minced into 2- to 3-mm pieces with scissors and digested with collagenase type IV (Thermo Fisher Scientific) using a gentle MACS Dissociator (Miltenyi Biotec). The numbers of tumor cells per mg were used as absolute numbers. Tumor cells were isolated from digested tumor tissues using a Tumor Cell Isolation Kit, mouse (Miltenyi Biotec). This kit purifies tumor cells by excluding lymphocytes, red blood cells, fibroblasts, endothelial cells and tumor-associated stromal cells. The resultant tumor cell population was further isolated/purified with FACS Aria (BD Biosciences).
as §2, with “These dyes were added to cells to a final concentration of 0.125 μM, 0.125 μM, 5.0 μM and 0.625 μM, respectively, and incubated at 37° C. in a 5% CO2 humidified incubator for 30 min.” left out

N#CC(C#N)=NNc1ccc(OC(F)(F)F)cc1 [FCCP, carbonyl cyanide p-trifluoromethoxyphenylhydrazone]
activation of mTOR and its associated proteins S6K and 4EBP1 [1]: also found to be activated
expression levels of PGC-1α protein and mRNA (PGC-1α): increased
IFN-γ production (IFN-γ): increased; also recorded: up-regulated
Eomes expression (T-bet and Eomes): not Eomes expression
T-bet expression (T-bet and Eomes): increased T-bet expression; also recorded: up-regulated
mitochondrial membrane potential and ROS in P3 population (CD8+ T cells; MC38-bearing mice, FCCP combined with PD-L1 antibody): significantly augmented
absolute number and proportion of effector CD8+ T cells (CD62L- CD44+, P3) in DLNs (CD8+ T cells; MC38-bearing mice, PD-L1 antibody + FCCP vs anti-PD-L1 antibody alone): significantly increased; also recorded: Increase
numbers of naive T cells (P1) and central memory T cells (P2) in DLNs (CD8+ T cells; MC38-bearing mice, PD-L1 antibody alone, or addition of FCCP): no further increase
toxic effects such as decrease in mitochondrial mass or fall in membrane potential (CD8+ T cells; at the dose used (1.2 mg/kg)): did not have toxic effects
